Results taken from patent publication US10774084B2, “Adenine derivatives and their use as UV-photoprotective agents” (UNIVERZITA PALACKEHO V OLOMOUCI, priority 2015, dated 2020).

Tests used:
[1] = system: Caenorhabditis elegans strain fem-1/HT17; test: Lifespan of Caenorhabditis elegans; type: in vivo; conditions: for average lifespan / median lifespan: 25° C.; for effect on lifespan of worms (in words): Log-Rank test, Bonferroni correction
From the text: Caenorhabditis elegans is a model organism used for identification of compounds with possible beneficial effect on human aging and age-related diseases. The list of compounds that prolong the lifespan of C. elegans and are known to have beneficial effect on human health includes resveratrol, curcumin and many others. Some substances that prolong the lifespan of worms are also used in skin rejuvenating and anti-aging cosmetics, for example vitamin E, coenzyme Q10, green tea or pomegranade extracts and cytokinin kinetin. The Caenorhabditis elegans strain used in this experiment was fem-1/HT17. This strain has a heat-inducible mutation which causes all worms to develop into females when cultivated in 25° C. (13). That prevents further reproduction and contamination of the experiment with progeny. Compounds dissolved in DMSO (100 mM stock solutions) were added into fresh NGM (nematode growth medium) to the final concentration of 10 and 50 or 100 μM and pipetted onto a Petri dish. Medium with DMSO vehiculum alone and non-treated medium were used as negative control. After solidification of NGM, the plates were seeded with 100 μl of 20× concentrated overnight suspension of Escherichia coli strain OP50 in LB medium. Bacteria on plates were allowed to grow overnight in 37° C. Age synchronized young adults (obtained by hypochlorite treatment) were then pipetted onto plates. Plates were kept in 25° C. In regular time intervals (1-3 days), the plates were scanned on an Epson perfection V700 photo flatbed scanner. The number of surviving worms was established by image analysis based on comparison of several subsequent photographs and identification of moving objects. Pictures were analyzed in Fiji similarly as described here. Scripts from the original publication were slightly modified and the parameters adjusted to better suit our photo resolution and lighting. Three subsequent pictures of a plate were compared with each other. The average of the 3 resulting numbers was used to reduce the possibility of error. The overall results were then analyzed in programs OASIS and ED50v10. The statistical significance was evaluated by Log-Rank test and P-values were corrected by Bonferroni correction.

[2] = system: HaCaT; test: In vitro UVA/UVB photoprotection test on HaCaT; type: cell-based, human
Procedure: Spontaneously Immortalized Aneuploid Human Keratinocyte Cell Line (HaCaT) was bought from CLS (Eppeheim, Germany) and used as an in vitro model. For all experiments the keratinocytes were seeded onto 96-well plates at a density of 1.6×10^5 cells/ml (0.2 ml per well) of growth medium (DMEM supplemented with fetal bovine serum (10%), penicillin ([…]) and streptomycin (100 U/ml)).
Test substances included compounds number 3, 9, 15 and 20. Compounds were dissolved in DMSO and then diluted in serum free medium (DMEM supplemented penicillin ([…]) and streptomycin (100 U/ml)). After 24 h incubation was growth medium changed to serum free medium containing test compounds. The final applied concentration range was 3.9-31.25 μmol/l. As a control, serum free medium supplemented with appropriate concentration of DMSO (0.5%, v/v) was used. Rosmarinic acid was used as positive control. After 60 minutes incubation with test compounds medium was discarded, cells were washed two-times with PBS and PBS supplemented with glucose (1 mg/ml) was applied. To study UVA photoprotection, a plate was exposed to a cytotoxic dose of UVA radiation (10 J/cm2) using a solar simulator SOL 500 (Dr. Hoenle Technology, Germany) equipped with a H1 filter transmitting wavelengths of 320-400 nm. To study UVB photoprotection, a plate was exposed to a cytotoxic dose of UVB radiation (150 mJ/cm2) using the solar simulator equipped with a H2 filter transmitting wavelengths of 295-320 nm. Intensity of UVA or UVB radiation was evaluated before each irradiation by UVA- or UVB-meter. Control (non-irradiated) plates were for the period of irradiation incubated in dark. After UVA or UVB exposure PBS with glucose was discarded and serum free medium was applied. After 24 hours (37° C., 5% CO2) cell damage was evaluated by neutral red (NR) incorporation into viable cells. Medium was discarded and NR solution (0.03% w/v, PBS) was applied. After 60 minutes NR solution was discarded, cells were fixed with a mixture of formaldehyde (0.5%, v/v) and CaCl2 (1%, m/v) in ratio 1:1 and then NR was dissolved in methanol (50%, v/v) with acetic acid (1%, v/v).
After 5 minutes of intensive shaking absorbance was measured at 540 nm. Experiments were performed in four independent repetitions with use of […] to minimize individual sensitivity of donor cells. Photoprotective effect was evaluated by comparison of experimental data (absorbance) of test compounds with a positive control and a negative control (according to the following equation: […]
As . . . absorbance of sample (cells pre-incubated with test compounds in serum free medium and irradiated)
Anc . . . absorbance of negative control (cells pre-incubated with s DMSO in serum free medium and non-irradiated=incubated in dark)
Apc . . . absorbance of positive control (cells pre-incubated with s DMSO in serum free medium and irradiated)

[3] = system: Triticum aestivum cv. Hereward leaf segments; test: Senescence bioassay on detached wheat leaf segments (chlorophyll retention); conditions: for maximum effective concentration: 96 h in the dark; for activity (%) [10^−4 mol · l^−1 BAP = 100%]: at maximum effective concentration
Procedure: Seeds of winter wheat, Triticum aestivum cv. Hereward, were washed under running water for 24 hours and then sown on vermiculite soaked with Knop's solution. They were placed in the growth chamber at 25° C. with a 16/8 h light period at […]. After 7 days, the first leaf was fully developed and the second leaf had started to grow. A tip section of the first leaf, approximately 35 mm long, was removed from 5 seedlings and trimmed slightly to a combined weight of 100 mg. The basal ends of the five leaf tips were placed in the wells of a microtiter polystyrene plate containing 150 μL of the tested derivative solution each. The entire plate was inserted into a plastic box lined with paper tissues soaked in distilled water to prevent leaf sections from drying out. After 96 h incubation in the dark at 25° C., the leaves were removed and chlorophyll extracted by heating at 80° C. for 10 min in 5 mL of 80% ethanol (v/v). The sample volume was then restored to 5 mL by the addition of 80% ethanol (v/v). The absorbance of the extract was recorded at 665 nm. In addition, chlorophyll extracts from fresh leaves and leaf tips incubated in deionised water were measured. The results are means of five replicates and the entire test was repeated twice. […] The compounds to be tested were dissolved in dimethylsulfoxide (DMSO) and the solution brought up to 10^−3 M with distilled water. […] The activity obtained for 10^−4 M of BAP was postulated as 100%. Kinetin was used as the second standard. Newly prepared compounds generally exceeded the efficiency of standard (BAP) by 10% of its activity (Tab. 5).

[4] = Table 17: UVA-induced damage (10 J/cm2), 3.9 μmol/l
[5] = Table 17: UVA-induced damage (10 J/cm2), 7.8 μmol/l
[6] = Table 17: UVA-induced damage (10 J/cm2), 15.6 μmol/l
[7] = Table 17: UVA-induced damage (10 J/cm2), 31.3 μmol/l
[8] = Table 18: titled UVA-induced damage, 3.9 μmol/l
[9] = Table 18: titled UVA-induced damage, 7.8 μmol/l
[10] = Table 18: titled UVA-induced damage, 15.6 μmol/l
[11] = Table 18: titled UVA-induced damage, 31.3 μmol/l

Row | SMILES | average lifespan ([1]; 10 μM in NGM) [days] | median lifespan ([1]; 10 μM in NGM) [days] | average lifespan ([1]; 100 μM in NGM) [days] | median lifespan ([1]; 100 μM in NGM) [days] | effect on lifespan of worms (in words) [1] | Protection (%) [2, 4] [%] | Protection (%) [2, 5] [%] | Protection (%) [2, 6] [%] | Protection (%) [2, 7] [%] | Protection (%) [2, 8] [%] | Protection (%) [2, 9] [%] | Protection (%) [2, 10] [%] | Protection (%) [2, 11] [%] | maximum effective concentration [3] | activity (%) [10^−4 mol · l^−1 BAP = 100%] [3] [%]
1 | Clc1nc(NCC2CCCO2)c2ncn(C3CCCO3)c2n1 (stereo not shown) [Compound 20, 2-chloro-6-(tetrahydrofuran-2-ylmethylamino)-9-(tetrahydrofuran-2-yl)purine] | 12.4 | 11.2 | 11.2 | 10.2 | significantly prolonged | 12.3 | 25.0 | 28.9 | 31.6 | 45.7 | 66.2 | 64 | 75.2 | 10^−4 mol · l^−1 | 127 ± 5
2 | Clc1nc(NCc2ccco2)c2ncn(C3CCCO3)c2n1 (stereo not shown) [Compound 15, 2-chloro-6-furfurylamino-9-(tetrahydrofuran-2-yl)purine] | 11.3 | 9.4 | 13.8 | 10.3 |  | 41.2 | 56.9 | 55.3 | 76.7 | 12.3 | 35.3 | 37.8 | 51.3 |  | 
3 | OCc1ccc(CNc2ncnc3c2ncn3C2CCCO2)o1 (stereo not shown) [Compound 3, 6-(5-hydroxymethylfuran-2-ylmethylamino)-9-(tetrahydrofuran-2-yl)purine] |  |  |  |  |  | 26.8 | 34.3 | 46.0 | 50.7 | 27.3 | 46.5 | 47.8 | 53.8 |  | 
4 | c1csc(CNc2ncnc3c2ncn3C2CCCO2)c1 (stereo not shown) [Compound 9, 6-(thiophen-2-ylmethylamino)-9-(tetrahydrofuran-2-yl)purine] |  |  |  |  |  | 72.1 | 70.3 | 66.8 | 61.4 | 48.8 | 56 | 55.7 | 56.5 | 10^−4 mol · l^−1 | 112 ± 5
5 | c1nc(NCC2CCCO2)c2ncn(C3CCCO3)c2n1 (stereo not shown) [Compound 1, 6-(tetrahydrofuran-2-ylmethylamino)-9-(tetrahydrofuran-2-yl)purine] | 11.9 | 10.3 | 12.6 | 10.2 | significantly prolonged |  |  |  |  |  |  |  |  | 10^−4 mol · l^−1 | 125 ± 9
